Assay results from the supplement of paper PMC10307832.

Columns and labels:
Assay in all cases: relative viability (nuclei count vs DMSO), 5 days (fraction); higher = more cells survive
Doxorubicin + Linsitinib = compound: COc1cccc2c1C(=O)c1c(O)c3c(c(O)c1C2=O)C[C@@](O)(C(=O)CO)C[C@@H]3O[C@H]1C[C@H](N)[C@H](O)[C@H](C)O1 [Doxorubicin] + C[C@]1(O)C[C@@H](c2nc(-c3ccc4ccc(-c5ccccc5)nc4c3)c3c(N)nccn32)C1 [Linsitinib] (partner 1 µM)
Procedure, shortened: (§1)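 Relative viability equals treated-well nuclei counts divided by vehicle-well nuclei counts. Counts came from 4× images of lung cancer cell lines grown in 1536-well plates for 5 days after pin-tool dosing on the day after seeding. Dosing used one drug alone or a fixed anchor-drug dose plus five library-drug doses (not always all listed) in √10 steps, and values are medians of duplicate plates.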

BAY61-3606 + Navitoclax = compound: COC1=C(C=C(C=C1)C2=CC3=NC=CN3C(=N2)NC4=C(C=CC=N4)C(=O)N)OC [BAY61-3606] + CC1(C)CCC(c2ccc(Cl)cc2)=C(CN2CCN(c3ccc(C(=O)NS(=O)(=O)c4ccc(N[C@H](CCN5CCOCC5)CSc5ccccc5)c(S(=O)(=O)C(F)(F)F)c4)cc3)CC2)C1 [Navitoclax] (partner 0.5 µM)
Procedure, shortened: as §1

BAY61-3606 + Palbociclib = compound: COC1=C(C=C(C=C1)C2=CC3=NC=CN3C(=N2)NC4=C(C=CC=N4)C(=O)N)OC [BAY61-3606] + CC(=O)c1c(C)c2cnc(Nc3ccc(N4CCNCC4)cn3)nc2n(C2CCCC2)c1=O [Palbociclib] (partner 0.5 µM)
Procedure, shortened: as §1

Doxorubicin + Crizotinib = compound: COc1cccc2c1C(=O)c1c(O)c3c(c(O)c1C2=O)C[C@@](O)(C(=O)CO)C[C@@H]3O[C@H]1C[C@H](N)[C@H](O)[C@H](C)O1 [Doxorubicin] + C[C@@H](Oc1cc(-c2cnn(C3CCNCC3)c2)cnc1N)c1c(Cl)ccc(F)c1Cl [Crizotinib] (partner 1 µM)
Procedure, shortened: as §1

Row | Cell Line | relative viability (Doxorubicin + Linsitinib; first compound 0.001 µM) | relative viability (Doxorubicin + Linsitinib; first compound 0.003162 µM) | relative viability (Doxorubicin + Linsitinib; first compound 0.01 µM) | relative viability (Doxorubicin + Linsitinib; first compound 0.03162 µM) | relative viability (Doxorubicin + Linsitinib; first compound 0.1 µM) | relative viability (BAY61-3606 + Navitoclax; first compound 0.02 µM) | relative viability (BAY61-3606 + Navitoclax; first compound 0.06325 µM) | relative viability (BAY61-3606 + Navitoclax; first compound 0.2 µM) | relative viability (BAY61-3606 + Navitoclax; first compound 0.6325 µM) | relative viability (BAY61-3606 + Navitoclax; first compound 2 µM) | relative viability (BAY61-3606 + Palbociclib; first compound 0.02 µM) | relative viability (BAY61-3606 + Palbociclib; first compound 0.06325 µM) | relative viability (BAY61-3606 + Palbociclib; first compound 0.2 µM) | relative viability (BAY61-3606 + Palbociclib; first compound 0.6325 µM) | relative viability (BAY61-3606 + Palbociclib; first compound 2 µM) | relative viability (Doxorubicin + Crizotinib; first compound 0.001 µM) | relative viability (Doxorubicin + Crizotinib; first compound 0.003162 µM) | relative viability (Doxorubicin + Crizotinib; first compound 0.01 µM) | relative viability (Doxorubicin + Crizotinib; first compound 0.03162 µM) | relative viability (Doxorubicin + Crizotinib; first compound 0.1 µM)
1 | NCI-H1651 | 0.838 | 0.944 | 0.831 | 0.401 | 0.292 | 1.21 | 1.09 | 0.964 | 1.17 | 0.909 | 0.558 | 0.511 | 0.513 | 0.573 | 0.523 | 0.934 | 0.929 | 0.855 | 0.836 | 0.871
2 | NCI-H1666 | 0.803 | 0.762 | 0.561 | 0.268 | 0.285 | 1.17 |  | 1.06 | 0.965 | 1.02 | 0.657 | 0.745 | 0.731 | 0.634 | 0.688 | 1.02 | 0.915 | 0.608 | 0.295 | 0.285
3 | NCI-H1734 | 0.945 | 0.922 | 0.826 | 0.731 | 0.871 | 0.904 | 0.727 | 0.786 | 0.829 | 0.529 | 0.361 | 0.327 | 0.367 | 0.351 | 0.214 | 0.714 | 0.788 | 0.583 | 0.517 | 0.588
4 | NCI-H1755 | 0.971 | 0.98 | 1.02 | 1.05 | 1.01 | 1.03 | 1.02 | 0.993 | 1.06 | 0.782 | 0.435 | 0.451 | 0.482 | 0.495 | 0.444 | 0.867 | 0.943 | 0.862 | 0.915 | 0.887
